Target: recombinant wild-type FintCSP1 (Frankliniella intonsa, UniProt A0A891LVF4)
Test: Fluorescence (1-NPN) binding and competitive binding assay, wild-type FintCSP1
Conditions: wild-type FintCSP1
Procedure: FintCSP1 and FoccCSP DNA were released from pEASY-T1/FintCSP1 and pEASY-T1/FoccCSP, respectively, by restriction digestion with BamHI and XhoI and cloned into the pET-30a vector (Invitrogen). The resulting construct was transformed into Transetta (DE3) Escherichia coli competent cells (Transgen). The production of recombinant FintCSP1 and FoccCSP was induced by addition of isopropyl-β-D-1-thiogalactopyranoside (IPTG, 0.2 mM) at 15°C and purified by Ni ion affinity chromatography (Sangon Biotech, Shanghai, China). The target protein was verified by 15% SDS-PAGE, and its concentration was determined with a BCA protein assay kit (Thermo Scientific, Rockford, IL, USA). The recombinant purified protein was stored at −20°C until use.
The binding affinity of FintCSP1 and FoccCSP to the fluorescent probe N-phenyl-1-naphthylamine (1-NPN) was tested using a Spectramax M2 fluorescence spectrometer (Molecular Devices, USA) as reported previously. […] The 1-NPN/FintCSP1 or 1-NPN/FoccCSP mixture was excited at 280 nm, and the emission spectra were recorded at 415 nm. The binding constants (Kd) of FintCSP1 or FoccCSP to 1-NPN were calculated by Scatchard analysis using Prism 5 software (GraphPad, La Jolla, CA, USA). Assuming a protein activity of 100% and that the volatile compound binds to the protein in a 1:1 ratio at saturation, the dissociation constants (Ki) of FintCSP1 or FoccCSP for each ligand were calculated according to the IC50 (the concentration when the ligand replaces 50% of the probe) value of the volatile compounds. The Ki values were calculated according to the following equation: Ki = [IC50]/(1 + [1-NPN]/K1-NPN), where [1-NPN] is the free concentration of 1-NPN, and K1-NPN is the Kd of the 1-NPN/FintCSP1 or 1-NPN/FoccCSP.

Chain of recombinant wild-type FintCSP1 (A0A891LVF4 entry or part of it): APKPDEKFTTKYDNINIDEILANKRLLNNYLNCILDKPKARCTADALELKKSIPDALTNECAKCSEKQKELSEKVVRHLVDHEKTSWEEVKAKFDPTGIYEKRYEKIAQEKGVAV

Compound: CC/C=C\CC=O [cis-3-hexenal]
- binding affinity to FintCSP1 (in words) (competitive fluorescence binding assay, classes of Ki): moderate binding affinity
- IC50 (displacement of 1-NPN, protein and 1-NPN both 2 μM, 50 mM Tris-HCl pH 7.4, read-out: IC50): 36.2 ± 1 µM
- Ki (displacement of 1-NPN, protein and 1-NPN both 2 μM, pH 7.4, calculated from IC50, read-out: Ki): 28.7 ± 0.79 µM

From paper PMC10194981, “Chemosensory protein regulates the behavioural response of Frankliniella intonsa and Frankliniella occidentalis to tomato zonate spot virus–Infected pepper (Capsicum annuum)” (PLOS Pathogens, 2023)
